The target of data set [1] is T1, RelP*Cg (Corynebacterium glutamicum, UniProt Q8NR76).
T1 construct: gene Cgl1177
Description: kinase activity, HPLC-MS product detection (ADP and GTP). In kind it is biochemical. The conditions noted are these: 4 mM ATP, 4 mM GDP, 50 mM Tris-HCl pH 8.0, 5 mM MgCl2, 30°C, 4 h; no pyrophosphokinase activity.

For data set [2], the target named is T2, RelCg (Corynebacterium glutamicum, UniProt O87331).
T2 construct: gene relA
T2 sequence (O87331 1-760): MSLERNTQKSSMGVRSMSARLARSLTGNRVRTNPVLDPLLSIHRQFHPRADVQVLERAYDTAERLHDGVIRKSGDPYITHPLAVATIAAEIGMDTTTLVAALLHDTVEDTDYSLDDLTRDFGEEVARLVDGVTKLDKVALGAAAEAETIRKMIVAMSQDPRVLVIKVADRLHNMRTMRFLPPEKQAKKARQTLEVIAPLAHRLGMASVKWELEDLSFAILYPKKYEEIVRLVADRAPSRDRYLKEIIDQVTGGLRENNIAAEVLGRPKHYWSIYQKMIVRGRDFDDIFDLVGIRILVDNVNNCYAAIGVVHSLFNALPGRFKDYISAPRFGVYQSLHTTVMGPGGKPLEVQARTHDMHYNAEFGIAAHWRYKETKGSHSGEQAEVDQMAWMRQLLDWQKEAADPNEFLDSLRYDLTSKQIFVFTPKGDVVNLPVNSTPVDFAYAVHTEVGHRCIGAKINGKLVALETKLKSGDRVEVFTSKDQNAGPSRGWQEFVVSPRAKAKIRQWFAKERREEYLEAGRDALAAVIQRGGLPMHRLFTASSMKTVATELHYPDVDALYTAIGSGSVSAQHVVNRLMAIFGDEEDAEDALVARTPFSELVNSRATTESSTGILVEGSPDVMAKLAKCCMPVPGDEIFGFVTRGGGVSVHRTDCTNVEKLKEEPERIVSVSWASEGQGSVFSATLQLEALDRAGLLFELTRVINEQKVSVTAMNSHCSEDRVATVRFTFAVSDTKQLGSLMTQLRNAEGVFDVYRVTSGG
Description: pyrophosphokinase assay, HPLC-MS product detection (ppGpp). As to conditions: 4 mM ATP, 4 mM GDP, 50 mM Tris-HCl pH 8.0, 5 mM MgCl2, 30°C, 4 h; GDP also phosphorylated to GTP. In kind it is biochemical.

The target of data set [3] is T2, RelCg. Description: pyrophosphokinase assay, HPLC-MS product detection (pppGpp). In kind it is biochemical. The conditions noted are these: 4 mM ATP, 4 mM GTP, 50 mM Tris-HCl pH 8.0, 5 mM MgCl2, 30°C, 4 h.
Data set [4] concerns the target T1, RelP*Cg. Description: phosphohydrolase activity, HPLC-MS product detection (ADP and GDP). As to conditions: 4 mM ATP, 4 mM GTP, 50 mM Tris-HCl pH 8.0, 5 mM MgCl2, 30°C, 4 h; no alarmone formed. In kind it is biochemical.
Substrate in data set [5]: Nc1nc2c(ncn2[C@@H]2O[C@H](COP(=O)(O)OP(=O)(O)O)[C@@H](O)[C@H]2O)c(=O)[nH]1
Description: pyrophosphokinase assay, HPLC-MS quantification of AMP, polynomial fit. As to conditions: 25 mM ATP, 50 mM HEPES-Na pH 7.0, 200 mM NaCl, 5 mM MgCl2, 30°C, 60 min, 250 nM enzyme, substrate excess inhibition at 25-50 mM. In kind it is biochemical, Corynebacterium glutamicum.

Substrate in data set [6]: Nc1nc2c(ncn2[C@@H]2O[C@H](COP(=O)(O)OP(=O)(O)OP(=O)(O)O)[C@@H](O)[C@H]2O)c(=O)[nH]1
Described as above. In kind it is biochemical, Corynebacterium glutamicum. As to conditions: 25 mM ATP, 50 mM HEPES-Na pH 7.0, 200 mM NaCl, 5 mM MgCl2, 30°C, 60 min, 250 nM enzyme, substrate excess inhibition at 25-50 mM.

Substrate in data set [7]: Nc1ncnc2c1ncn2[C@@H]1O[C@H](COP(=O)(O)OP(=O)(O)OP(=O)(O)O)[C@@H](O)[C@H]1O
Description: pyrophosphokinase assay, HPLC-MS quantification of AMP; half-maximal specific activity. In kind it is biochemical, Corynebacterium glutamicum. As to conditions: 25 mM GTP, 50 mM HEPES-Na pH 7.0, 200 mM NaCl, 5 mM MgCl2, 30°C, 60 min, 250 nM enzyme.

T1 sequence (Q8NR76 entry or part of it): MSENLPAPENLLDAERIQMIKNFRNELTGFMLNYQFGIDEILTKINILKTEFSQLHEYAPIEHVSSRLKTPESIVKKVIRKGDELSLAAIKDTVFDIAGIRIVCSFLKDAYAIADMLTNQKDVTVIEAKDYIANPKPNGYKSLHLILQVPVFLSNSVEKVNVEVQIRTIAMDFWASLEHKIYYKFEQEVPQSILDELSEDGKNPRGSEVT

With `Nc1nc2c(ncn2[C@@H]2O[C@H](COP(=O)(O)OP(=O)(O)O)[C@@H](O)[C@H]2O)c(=O)[nH]1` [GDP], the “kinase activity, HPLC-MS product detection (ADP and GTP)” value on RelP*Cg [1] was “RelP^*Cg possesses a kinase activity, since ADP and GTP were produced”. For the same molecule, the “pyrophosphokinase assay, HPLC-MS product detection (ppGpp)” value at RelCg [2] was “pyrophosphorylation of GDP and GTP to ppGpp and pppGpp was detected”.

Turning to `Nc1nc2c(ncn2[C@@H]2O[C@H](COP(=O)(O)OP(=O)(O)OP(=O)(O)O)[C@@H](O)[C@H]2O)c(=O)[nH]1` [GTP], the “pyrophosphokinase assay, HPLC-MS product detection (pppGpp)” value on RelCg [3] was “pyrophosphorylation of GDP and GTP to ppGpp and pppGpp was detected”. Moreover, at RelP*Cg [4], the “phosphohydrolase activity, HPLC-MS product detection (ADP and GDP)” value is “containing RelP^*Cg as well as ATP and GTP as substrates, significant amounts of ADP and GDP”.

B1: RelSCg (Corynebacterium glutamicum ATCC 13032) (protein)
chain: MSDNTLSQFGSYYHEFRRAHPMADVEFLLAIEELLTDGGVTFDRVTTRIKEWSSLKAKARKRRNDGSLIYPDPRKDIHDMIGVRITTYHSTEIPVALKVLQDSFIVHKSVDKAAETRISGGFGYGSHHLILEVDDTSDDLQDYKGLVFEVQVRTVLQHAWAEFEHDIRYKRADVSNPEDFSAEVDRMFTLAAGLIELADQQFDQIAALKETSRVADESVELTAETLPGVLAMLIGNRFPRPRSTNYRFLEDILVANSITSVVQLRELLNPTDIEVLLKVMNYRFHPGQIRIIDDLLLKRFGQSHIDATVATDSQPLNAKRHRQLKRKLELMTQAHLVEPPN
What is called Km is the concentration of substrate that gives half-maximal velocity. As to B1, the Km in data set [5] amounted to 6.1 mM; in data set [6], 4.1 mM. Also, the K0.5 in data set [7] is listed as 0.8 mM.

These data come from publication PMC5566576, “Identification and Functional Characterization of Small Alarmone Synthetases in Corynebacterium glutamicum” (Frontiers in Microbiology, 2017).
